What was measured:
[1] = test system: N. multiformis; experiment: standard nitrification inhibition assay (NO2- production, Griess); format: cell-based, Nitrosospira multiformis; conditions: [NH4+]=3 mM, [inhibitor]=0.3 mM (10 mol %), pH 7.5, 30° C., 60 min
Experimental: (§1) Cells of N. multiformis and N. europaea were cultivated to the mid-exponential growth phase (OD600=0.1, [NO2^−] approximately 800 μM) and harvested by filtration onto 0.2 μm membrane filters (Mixed Cellulose Ester (MCE), Sigma Aldrich). The cells were washed with 2×100 mL of 0.1 M sodium phosphate buffer (NaPB), containing 0.2 mM MgSO4 at pH 7.5. The cells were washed from the filter paper by transferring it to a sterile 50 mL tube and resuspending in NaPB (15 mL), followed by 5 s of vortexing (Ratek, Australia) and 3 s of sonication (Vevor, Australia). […] Experiments were performed in triplicate.
(§2) In a deep 96-well plate (2 mL capacity), 980 μL of the bacterial inoculum (OD600=0.03) was added to the inhibitor (10 μL, 30 mmol L^−1 in Milli-Q water), the solutions were mixed thoroughly and pre-incubated in the dark for 5 minutes at 100 rpm and 30° C. (NH4)2SO4 (10 μL, 150 mM, from a prepared sterile solution containing 19.8 g L^−1 (NH4)2SO4 in Milli-Q water) was then added using a multi-channel pipette. The plate was covered with a with an O2 permeable membrane to ensure aeration (Breathe-Easy® sealing membrane, Sigma Aldrich) and incubated in a temperature-regulated rotary incubator (Ratek, Australia) in the dark for 60 minutes at 30° C. and 100 rpm. An aliquot of the reaction solution ([…]) was transferred to a 96-well spectrophotometric plate to which 50 µL of Griess reagent was added. The colour was allowed to develop for 15 minutes at room temperature, and the absorbance was measured at 540 nm. Each assay was accompanied by control treatments to determine the 0% and 100% NO2 signal. The percentage inhibition was calculated according to eqn. 1 from the NO2 production of the cells in NaPB (i) without additive (‘untreated cells’: 0% signal), (ii) with [NH4^+]=3 mM (‘uninhibited’ cells: 100% signal) and (iii) with [NH4^+]=3 mM and [inhibitor]=0.3 mM and 0.03 mM (10 mol % and 1 mol % of [NH4^+], ‘inhibited cells’). Experiments were performed in triplicate.

[2] = test system: N. europaea; experiment: as above; format: cell-based, Nitrosomonas europaea; conditions: [NH4+]=3 mM, [inhibitor]=0.3 mM (10 mol %), pH 7.5, 30° C., 60 min
Experimental: as §1, §2

[3] = test system: soil A; experiment: soil incubation, NH4+ and NO3- in soil A; conditions: 5 mol % of applied fertiliser-N, 21 days
Experimental: Soils used in these studies were air-dried, ground and sieved (2 mm) prior to use. Soil microcosm incubations were carried out in 250 mL polypropylene specimen containers (Sarstedt, Germany), containing 20 g oven dry-weight equivalent of soil. Microcosms were treated with half the volume of water required to meet the desired water-filled pore space (WFPS %) of 60% and pre-incubated at 25° C. for seven days to revive soil microbial activity. Following pre-incubation, the remaining volume to reach the WFPS % was applied as one of the treatment solutions: (1) fertiliser ((NH4)2SO4,) 100 mg kg^−1, (2) fertiliser+0.5 mol % 4-MPT, (3) fertiliser+2.5 mol % 4-MPT, (4) fertiliser+5 mol % 4-MPT or (5) fertiliser+5 mol % compound 1, with three replicates of each treatment per time interval (n=3). Throughout the incubation period soil microcosms were kept aerated by removing the lid for 10 minutes every 2-3 days to allow gas exchange, and moisture levels were replenished via addition of Milli-Q water as required. At the end of the desired incubation period (i.e., after 0, 3, 7, 14, and 21 days, respectively), soil microcosms were removed and destructively sampled by treating with 2 M aqueous potassium chloride solution (KCl, 100 mL) and shaking for 1 h. Soil-KCl solutions were filtered (Whatman No. 42), and the filtrates were stored at −20° C. until the conclusion of the experiment, when all KCl extracts were analysed for the concentration of soil mineral nitrogen from ammonium (NH4^+—N) and from nitrate (NO3^−—N; the conversion of NO2 to NO3^− in soils is very rapid) after appropriate dilutions using Segmented Flow Analysis (San++, Skalar, Breda, The Netherlands). Results are reported as the mean of three replicates, errors reported are standard errors of the mean. Errors associated with raw data were carried through calculations using standard error propagation protocols.
To determine the nitrification inhibitory effect of 4-MPT in vivo, soil incubations were performed by measuring concentration-time profiles for NH4^+ and NO3^− in an acidic Australian soil (soil A, pH=5.9) over 21 days. 4-MPT was tested at three different concentrations (0.5 mol %, 2.5 mol % and 5 mol % of applied fertiliser-N) and compared with the alkyl-substituted compound 1 (5 mol % of applied fertiliser-N) to confirm the requirement of the N-propargyl substitutent for inhibitory activity (FIG. 5).

## CCCn1cc(C)nn1 [Compound 1, 4-Methyl-1-(n-propyl)-1H-1,2,3-triazole]
[1]
  % Inhibition NM: complete loss of inhibitory activity
[2]
  % Inhibition NE: complete loss of inhibitory activity
[3]
  NH4+ loss / conversion in soil: negligible levels of NH4^+ remaining after 21 days of incubation

— patent US20260215425A1, “NITRIFICATION INHIBITORS” (The University of Melbourne, priority 2022, published 2026)
